Measurements as given in PMC11642044 (International Journal of Molecular Sciences, 2024).

Assays:
Format in all cases: cell-based, human
ERK = assay: Stimulatory phosphorylation of ERK (Western blot), U87-MG; conditions: 5 μM HOE-140, 1 µM bradykinin, 10 min
Method: (§1) The resulting Ca^2+ signal profiles were monitored by FLIPR for 3 min.
(§2) SDS-PAGE and Western blotting were performed as described in our previous studies. In brief, cells in 6-well plates (5 × 10^5 cells/well) were lysed in 500 μL of ice-cold lysis buffer (50 mM Tris-HCl at pH 7.5 containing 100 mM NaCl, 5 mM EDTA, 40 mM NaP2O7, 1% Triton X-100, 1 mM dithiothreitol, 200 μM Na3VO4, 100 μM phenylmethylsulfonyl fluoride, 2 μg/mL leupeptin, 4 μg/mL aprotinin, and 0.7 μg/mL pepstatin) and then gently shaken for 30 min. The amount of protein in each sample was determined by detergent compatible (DC) protein assay according to the supplier’s instruction (Bio-Rad, Hercules, CA, USA). Clarified lysates (30 μg protein per sample) were resolved on 12% SDS-polyacrylamide gels and then transferred to nitrocellulose membranes (Westborough, MA, USA). Resolved proteins were detected by specific primary antibodies and horseradish peroxidase-conjugated secondary antisera. The level of β-actin was determined as an internal control. […] Chemiluminescence signals were then detected by ChemiDoc imaging systems (Bio-Rad, Hercules, CA, USA) with the subsequent band densities quantified by ImageJ (https://imagej.net/ij/) analysis software (National Institutes of Health, MD, USA). […]
(§3) Chemiluminescence signals were then detected by the ChemiDoc Imaging Systems (Bio-Rad, […]

p38 MAPK = assay: Stimulatory phosphorylation of p38 MAPK (Western blot), U87-MG; conditions: 5 μM HOE-140, 1 µM bradykinin, 10 min
Method: as §1, §2, §3

JNK = assay: Stimulatory phosphorylation of JNK (Western blot), U87-MG; conditions: 5 μM HOE-140, 1 µM bradykinin, 10 min
Method: as §1, §2, §3

ERK in U87-MG cells = assay: ERK phosphorylation in U87-MG by SK-N-MC-derived conditioned media (CM-SK); conditions: HOE-140 5 μM, 15 min pre-treatment
Method: (§4) These conditioned media were either immediately applied to SK-N-SH/SK-N-MC cells (80–100% confluence) in 6-well plates for 15 min, or subjected to heat treatment on a 96 °C heat block for 5 min, and then cooled to 37 °C before they were applied to the SK-N-SH/SK-N-MC cells for 15 min. […] For the SK-N-MC-derived conditioned media, SK-N-MC cells (80–100% confluence) in a 10 cm culture dish were serum-starved in 10 mL of MEM (without FBS), with 1 mL of the resulting conditioned medium being collected at indicated time points (15 min, 1 h, 3 h, 6 h). Simultaneously, U87-MG cells (80–100% confluence) in 12-well plates were serum-starved in MEM for 6 h, followed by pretreatment of […] (5 μM, 15 min), and then challenged with the SK-N-MC-derived conditioned media (mentioned above) for 10 min before cell lysis. […]
(§5) SDS-PAGE and Western blotting were performed as described in our previous studies. […] The amount of protein in each sample was determined by detergent compatible (DC) protein assay according to the supplier’s instruction (Bio-Rad, Hercules, CA, USA). […] Resolved proteins were detected by specific primary antibodies and horseradish peroxidase-conjugated secondary antisera. The level of β-actin was determined as an internal control.

p38 in U87-MG cells = assay: p38 phosphorylation in U87-MG by SK-N-MC-derived conditioned media (CM-SK); conditions: HOE-140 5 μM, 15 min pre-treatment
Method: as §4, §5

JNK in U87-MG cells = assay: JNK phosphorylation in U87-MG by SK-N-MC-derived conditioned media (CM-SK); conditions: HOE-140 5 μM, 15 min pre-treatment
Method: as §4, §5

[1] = system: B2R-mediated LIF secretion in U87-MG cells; assay: Inhibition of bradykinin-induced LIF production (ELISA), U87-MG; conditions: 5 μM HOE-140, 30 min pre-treatment, bradykinin 1 µM, 24 h
Method: Conditioned media were analyzed for the presence of multiple cytokines by using the cytokine multiplex assay kits (Merck Millipore, MA, USA) as previously described. Briefly, a bead mixture with various capture antibodies (50 μL) was added to a 96-well microtiter plate, followed by 50 μL of cytokine standard mix or test sample and then 25 μL of a biotinylated detection antibody mixture. The mixtures were incubated for 30 min at 25 °C with gentle shaking. Unbound antibodies were removed by three gentle washes. Finally, 50 μL of streptavidin–PE solution was added and incubated for another 30 min with gentle shaking. The detection beads were then washed again and resuspended in 120 μL of reading buffer. The Bio-Plex™ 200 system (Bio-Rad Laboratories, Hercules, CA, USA) with the Bio-Plex manager software (version 5.0) was utilized for signal detection and data analysis. Curve fitting was applied to each standard curve according to the manufacturer’s manual and sample concentrations were interpolated from the standard curves. Individual detections for LIF and IL-6 were performed using the corresponding ELISA kits from Abcam (Cambridge, UK) according to the manufacturer’s instructions.
as §1

HOE-140
inhibition of bradykinin-induced ERK activation (ERK): completely abolished | inhibition of bradykinin-induced p38 MAPK activation (p38 MAPK): completely abolished | inhibition of bradykinin-induced JNK activation (JNK): completely abolished | inhibition of CM-SK-stimulated ERK phosphorylation (ERK in U87-MG cells): significantly inhibited | inhibition of CM-SK-stimulated p38 phosphorylation (p38 in U87-MG cells): significantly inhibited | inhibition of CM-SK-stimulated JNK phosphorylation (JNK in U87-MG cells): significantly inhibited | inhibition of bradykinin-induced LIF production [1]: blocked the ability of bradykinin to stimulate LIF production
